This is an account of results in patent US20230107642A1 (Erasca, Inc., priority 2020, published 2023).

Assay [1] has as its target T1, Cys12 of the KRAS 4B G12C protein (Homo sapiens, UniProt P01116, G12C).
T1 construct: This protein contained 188 amino acids in total, including an N-terminal 6-Histidine tag; made in house; host or cells: E. coli BL21
Put plainly: In vitro covalent adduct formation (CAF) assay, LC-MS intact mass. Type of assay: binding. The conditions noted are these: 10 uM compound, 60 min incubation. As to the method:
This Example provides a protocol for assessing covalent adduct formation (CAF) between the compounds of the present application and KRAS.
In vitro covalent adduct formation assay: Covalent adduct formation (CAF) reactions between Cys12 of the KRAS 4B G12C protein and some of the compounds of Tables 1 to 4 were measured in vitro using liquid chromatography-mass spectrometry (LC-MS).
Recombinant Human KRAS 4B protein containing the G12C mutation was used in compound screening experiments. This protein contained 188 amino acids in total, including an N-terminal 6-Histidine tag, followed by a Tobacco Etch Virus (TEV) tag, followed by residues 1-169 of the native KRAS 4B sequence. The exact mass of the protein was 21,310 Da as determined by mass spectrometry. The full amino acid sequence is shown below: […]
The recombinant protein was expressed in E. coli BL21 cells and purified using affinity chromatography via a Ni-NTA column. Protein stocks were nucleotide-exchanged to >95% GDP, concentrated to 4 mg/mL, and stored at −80° C. in storage buffer (50 mM HEPES pH 7.4, 50 mM NaCl, 5 mM MgCl2, 1 mM DTT). Pure KRAS 4B G12C protein was diluted to a concentration of 5 μM in Tris Buffered Saline, pH 7.4. The compounds were dissolved in DMSO and added to the diluted protein to make a 10 μM concentration. The total DMSO concentration in the reaction was 4%. The reaction was mixed by pipetting and incubated at 22° C. for one hour. Aliquots of the reaction were taken over time and diluted 2:1 in 0.1% formic acid. The intact mass of the protein samples was measured by LC-MS using a QExactive+ mass spectrometer (Thermo Scientific). An amount of 500 ng total protein was injected onto a C8 reverse phase column, eluted with a seven-minute gradient of 30%-90% acetonitrile/0.1% formic acid, and analyzed for intact mass by the mass spectrometer. Adducts identified were confirmed to be within 1 Dalton of the expected mass, and the relative ratios of free:adduct protein were used to quantify the percentage of protein bound by the compound. CAF reactions were run in duplicate, with a typical variability of ±5%.

For a further assay, the target named is T2, K-Ras G12C (Homo sapiens, UniProt P01116, G12C).
T2 construct: This protein contained 188 amino acids in total, including an N-terminal 6-Histidine tag; made in house; host or cells: E. coli BL21
Put plainly: CAF assay (% CAF; method in Example 7, not in this part). Type of assay: binding. The conditions noted are these: 10 uM compound, 1 h incubation.

`C=CC(=O)N1C[C@H](C)N(c2nc(=O)n3c4c(c(-c5cccc6cnn(C)c56)c(C(F)(F)F)cc24)SC[C@@H]3COC)C[C@H]1C` (atropisomer, axis not shown) [Example 1101, (3S,10R)-7-((2S,5R)-4-acryloyl-2,5-dimethylpiperazin-1-yl)-3-(methoxymethyl)-10-(1-methyl-1H-indazol-7-yl)-9-(trifluoromethyl)-2,3-dihydro-5H-[1,4]thiazino[2,3,4-ij]quinazolin-5-one]: the “% CAF 10 uM @ 60 min” value in assay [1] was 0%.

As for `C=CC(=O)N1C[C@H](C)N(c2nc(=O)n3c4c(c(-c5cccc6cnn(C)c56)c(C(F)(F)F)cc24)SC[C@@H]3COC)C[C@H]1C` (atropisomer, axis not shown) [Example 1102, (3S,10S)-7-((2S,5R)-4-acryloyl-2,5-dimethylpiperazin-1-yl)-3-(methoxymethyl)-10-(1-methyl-1H-indazol-7-yl)-9-(trifluoromethyl)-2,3-dihydro-5H-[1,4]thiazino[2,3,4-ij]quinazolin-5-one], the “% CAF 10 uM @ 60 min” value in assay [1] is listed as 94.5%.

Regarding `C=CC(=O)N1CCN(c2nc(=O)n3c4c(c(-c5cc(Cl)c(F)cc5F)c(C(F)(F)F)cc24)SC[C@@H]3COC)CC1` (atropisomer, axis not shown) [Example 1107, (3S,10R)-7-(4-acryloylpiperazin-1-yl)-10-(5-chloro-2,4-difluorophenyl)-3-(methoxymethyl)-9-(trifluoromethyl)-2,3-dihydro-5H-[1,4]thiazino[2,3,4-ij]quinazolin-5-one], in assay [1], the “% CAF 10 uM @ 60 min” value is reported as 97%.

As to `C=CC(=O)N1CCN(c2nc(=O)n3c4c(c(-c5cc(Cl)c(F)cc5F)c(C(F)(F)F)cc24)SC[C@@H]3COC)CC1` (atropisomer, axis not shown) [Example 1108, (3S,10S)-7-(4-acryloylpiperazin-1-yl)-10-(5-chloro-2,4-difluorophenyl)-3-(methoxymethyl)-9-(trifluoromethyl)-2,3-dihydro-5H-[1,4]thiazino[2,3,4-ij]quinazolin-5-one], in assay [1], the “% CAF 10 uM @ 60 min” value came out at 85%.

As for `C=CC(=O)N1C[C@H](C)N(c2nc(=O)n3c4c(c(-c5ccc(F)cc5F)c(C(F)(F)F)cc24)SCC2(COC2)C3)C[C@H]1C` (atropisomer, axis not shown) [Example 1109, (S)-8′-((2S,5R)-4-acryloyl-2,5-dimethylpiperazin-1-yl)-11′-(2,4-difluorophenyl)-10′-(trifluoromethyl)-2′H,4′H,6′H-spiro[oxetane-3,3′-[1,4]thiazepino [2,3,4-ij]quinazolin]-6′-one], in assay [1], the “% CAF 10 uM @ 60 min” value is reported as 93%.

Regarding `C=CC(=O)N1C[C@H](C)N(c2nc(=O)n3c4c(c(-c5ccc(F)cc5F)c(C(F)(F)F)cc24)SCC2(COC2)C3)C[C@H]1C` (atropisomer, axis not shown) [Example 1110, (R)-8′-((2S,5R)-4-acryloyl-2,5-dimethylpiperazin-1-yl)-11′-(2,4-difluorophenyl)-10′-(trifluoromethyl)-2′H,4′H,6′H-spiro[oxetane-3,3′-[1,4]thiazepino [2,3,4-ij]quinazolin]-6′-one], the “% CAF 10 uM @ 60 min” value in assay [1] stood at 96.1%.

On to `C=CC(=O)N1[C@H](C)CN(c2nc(=O)n3c4c(c(-c5cc(Cl)c(F)cc5F)c(C(F)(F)F)cc24)SC[C@H](N2CCOCC2)C3)C[C@@H]1C` (atropisomer, axis not shown) [Example 1114, (3R,11R)-8-((3S,5R)-4-acryloyl-3,5-dimethylpiperazin-1-yl)-11-(5-chloro-2,4-difluorophenyl)-3-morpholino-10-(trifluoromethyl)-3,4-dihydro-2H,6H-[1,4]thiazepino [2,3,4-ij]quinazolin-6-one], for which the “% CAF 10 uM @ 60 min” value in assay [1] is 71.7%.

For the compound `C=CC(=O)N1[C@H](C)CN(c2nc(=O)n3c4c(c(-c5cc(Cl)c(F)cc5F)c(C(F)(F)F)cc24)SC[C@H](N2CCOCC2)C3)C[C@@H]1C` (atropisomer, axis not shown) [Example 1115, (3R,11S)-8-((3S,5R)-4-acryloyl-3,5-dimethylpiperazin-1-yl)-11-(5-chloro-2,4-difluorophenyl)-3-morpholino-10-(trifluoromethyl)-3,4-dihydro-2H,6H-[1,4]thiazepino [2,3,4-ij]quinazolin-6-one], in assay [1], the “% CAF 10 uM @ 60 min” value amounted to 42.5%.

On to `C=CC(=O)N1CCN(c2nc(=O)n3c4c(c(-c5cccc6cnn(C)c56)c(C(F)(F)F)cc24)SC[C@@H]3COC)CC1` (atropisomer, axis not shown) [Example 1119, (3S,10S)-7-(4-acryloylpiperazin-1-yl)-3-(methoxymethyl)-10-(1-methyl-1H-indazol-7-yl)-9-(trifluoromethyl)-2,3-dihydro-5H-[1,4]thiazino[2,3,4-ij]quinazolin-5-one], for which the “% CAF 10 uM @ 60 min” value in assay [1] was 99.4%.

In the case of `C=CC(=O)N1CCN(c2nc(=O)n3c4c(c(-c5cc(Cl)c(F)cc5F)c(C(F)(F)F)cc24)SC[C@@H](OC)C3)CC1` [Example 582, (3S)-8-(4-acryloylpiperazin-1-yl)-11-(5-chloro-2,4-difluorophenyl)-3-methoxy-10-(trifluoromethyl)-3,4-dihydro-2H,6H-[1,4]thiazepino[2,3,4-ij]quinazolin-6-one], at K-Ras G12C, the “% CAF @ 10 uM, 1h” value was 88%.

As to `C=CC(=O)N1CCN(c2nc(=O)n3c4c(c(-c5cc(Cl)c(F)cc5F)c(C(F)(F)F)cc24)SC[C@@H](OC)C3)[C@@H](C)C1` [Example 583, (3S)-8-((S)-4-acryloyl-2-methylpiperazin-1-yl)-11-(5-chloro-2,4-difluorophenyl)-3-methoxy-10-(trifluoromethyl)-3,4-dihydro-2H,6H-[1,4]thiazepino[2,3,4-ij]quinazolin-6-one], the “% CAF @ 10 uM, 1h” value at K-Ras G12C was determined as 91%.

Take `C=CC(=O)N1[C@H](C)CN(c2nc(=O)n3c4c(c(-c5ccc(F)cc5)c(C(F)(F)F)cc24)SC[C@H](OC)C3)C[C@@H]1C` [Example 584, (R)-8-((3S,5R)-4-acryloyl-3,5-dimethylpiperazin-1-yl)-11-(4-fluorophenyl)-3-methoxy-10-(trifluoromethyl)-3,4-dihydro-2H,6H-[1,4]thiazepino[2,3,4-ij]quinazolin-6-one]: at K-Ras G12C, the “% CAF @ 10 uM, 1h” value worked out at 97%.

As for `C=CC(=O)N1[C@H](C)CN(c2nc(=O)n3c4c(c(-c5ccc(F)cc5)c(C(F)(F)F)cc24)SC[C@@H](OC)C3)C[C@@H]1C` [Example 585, (S)-8-((3S,5R)-4-acryloyl-3,5-dimethylpiperazin-1-yl)-11-(4-fluorophenyl)-3-methoxy-10-(trifluoromethyl)-3,4-dihydro-2H,6H-[1,4]thiazepino[2,3,4-ij]quinazolin-6-one], the “% CAF @ 10 uM, 1h” value at K-Ras G12C amounted to 97%.

As for `C=CC(=O)N1[C@H](C)CN(c2nc(=O)n3c4c(c(-c5ccc(F)cc5F)c(C(F)(F)F)cc24)SC[C@H](N(C)C)C3)C[C@@H]1C` [Example 586, (3R)-8-((3S,5R)-4-acryloyl-3,5-dimethylpiperazin-1-yl)-11-(2,4-difluorophenyl)-3-(dimethylamino)-10-(trifluoromethyl)-3,4-dihydro-2H,6H-[1,4]thiazepino[2,3,4-ij]quinazolin-6-one], at K-Ras G12C, the “% CAF @ 10 uM, 1h” value turned out to be 40%.

With `C=CC(=O)N1[C@H](C)CN(c2nc(=O)n3c4c(c(-c5cc(Cl)c(F)cc5F)c(C(F)(F)F)cc24)SC[C@@H]3CN(C)C)C[C@@H]1C` [Example 587, (3S)-7-((3S,5R)-4-acryloyl-3,5-dimethylpiperazin-1-yl)-10-(5-chloro-2,4-difluorophenyl)-3-((dimethylamino)methyl)-9-(trifluoromethyl)-2H-[1,4]thiazino[2,3,4-ij]quinazolin-5(3H)-one], the “% CAF @ 10 uM, 1h” value on K-Ras G12C is reported as 58.9%.

As for `C=CC(=O)N1C[C@H](C)N(c2nc(=O)n3c4c(c(-c5ccc(F)cc5F)c(C(F)(F)F)cc24)SCC2(COC2)C3)C[C@H]1C` [Example 588, 8′-((2S,5R)-4-Acryloyl-2,5-dimethylpiperazin-1-yl)-11′-(2,4-difluorophenyl)-10′-(trifluoromethyl)-2′H,4′H,6′H-spiro[oxetane-3,3′-[1,4]thiazepino[2,3,4-ij]quinazolin]-6′-one], the “% CAF @ 10 uM, 1h” value at K-Ras G12C is given as 95.9%.

For the compound `[2H]C1([2H])N(C(=O)C=C)C([2H])([2H])C([2H])([2H])N(c2nc(=O)n3c4c(c(-c5ccc(F)cc5F)c(C(F)(F)F)cc24)SCC2(COC2)C3)C1([2H])[2H]` [Example 589, 8′-(4-Acryloylpiperazin-1-yl-2,2,3,3,5,5,6,6-d8)-11′-(2,4-difluorophenyl)-10′-(trifluoromethyl)-2′H,4′H,6′H-spiro[oxetane-3,3′-[1,4]thiazepino[2,3,4-ij]quinazolin]-6′-one], at K-Ras G12C, the “% CAF @ 10 uM, 1h” value was found to be 92.9%.
